The source of these data is patent US8426616B2, “Triptolide lactone ring derivatives as immunomodulators and anticancer agents” (priority 2004, dated 2013).

The structures appear in SMILES notation. “Also recorded” adds a separate entry of the source.

Data set [1] has as its system human T cell lymphoma (Jurkat) cells. Conditions: for cytotoxic activity (MTT assay), compound incubated in human serum: pre-incubation in human serum; for cytotoxic activity (MTT assay, OD570): 24 h culture with compound. Here is the method: Test compounds were dissolved in DMSO at a concentration of 20 mM. Further dilutions were done in RPMI1640 medium (GIBCO, Rockville, Md.) supplemented with 10% Fetal Calf Serum (HyClone Laboratories, Logan, Utah).
Cytotoxicity of the compounds was determined in a standard MTT assay using Cell Proliferation Kit I (#1 465 007, Roche Diagnostics, Mannheim, Germany). Briefly, human T cell lymphoma (Jurkat) cells (4×10^5 per well) were cultured for 24 h, in 96-well tissue culture plates, in the presence of serial three-fold dilutions of test compounds or medium containing the same concentration of DMSO as in the test samples at each dilution point. The cultures were then supplemented with 10 μl/well MTT reagent for 4 h and then with 0.1 ml/well solubilizing reagent for an additional 16 h. Optical density at 570 nm (OD570) was measured on a ThermoScan microplate reader (Molecular Devices, Menlo Park, Calif.).
The data is presented as OD570 values versus concentration of the compounds. In this case, data is provided for both compounds incubated in human serum and in mouse serum, and for PG796 without incubation.

The subject of data set [2] is IL-2 production in Jurkat cells. It counts as cell-based, human. The settings on record: for inhibition of IL-2 production, compound incubated in human serum: pre-incubation in human serum; for inhibition of IL-2 production: Jurkat cells stimulated with anti-CD3 and PMA, 24 h. Here is the method: Test samples were diluted to 1 mM in complete tissue culture medium. […] Cells from an exponentially expanding culture of Jurkat human T cell line (#TIB-152 obtained from American Type Culture Collection, Manassas, Va.) were harvested, washed once by centrifugation, re-suspended in complete tissue culture medium, and diluted to a concentration of 2×10^6 cells/ml. A volume of 50 μl of Jurkat cells (1×10^5 cells) was added to wells containing 100 μl of the diluted compounds, 50 μl of PMA (10 ng/ml) was added to each well, and the plates were incubated at 37° C. in a 5% CO2 incubator. After 24 hours, the plates were centrifuged to pellet the cells, 150 μl of supernatant was removed from each well, and the samples were stored at −20° C. The stored supernatants were analyzed for human IL-2 concentration using the Luminex 100 (Luminex Corporation, Austin, Tex.), Luminex microspheres coupled with anti-IL-2 capture antibody, and fluorochrome-coupled anti-IL-2 detection antibody. The data were expressed as pg/ml of IL-2.
The data were plotted as the concentration of compound versus IL-2 concentration. In this case, data is provided for both compounds incubated in human serum and in mouse serum, and for PG796 without incubation.

`CC(C)[C@]12O[C@H]1[C@@H]1O[C@]13[C@]1(O[C@H]1C[C@H]1C4=C(CC[C@@]13C)C(=O)OC4)[C@@H]2OC(=O)CCC(=O)O` [triptolide 14-succinate, reference compound]: in data set [1], the “cytotoxic activity (MTT assay), compound incubated in human serum” value is on record as “much less active in these assays than triptolide 14-succinate incubated in mouse serum”. For the same compound, the “inhibition of IL-2 production, compound incubated in human serum” value in data set [2] (Jurkat cells) is listed as “much less active in these assays than triptolide 14-succinate incubated in mouse serum”.
Take `CC(C)[C@]12O[C@H]1[C@@H]1O[C@]13[C@]1(O[C@H]1C[C@H]1c4c(C(=O)c5ccccc5)oc(OC(=O)c5ccccc5)c4CC[C@@]13C)[C@@H]2O` [PG796, 18-deoxo-19-dehydro-18-benzoyloxy-19-benzoyl triptolide]: in data set [1], the “cytotoxic activity (MTT assay, OD570)” value is “cytotoxic to Jurkat cells; also recorded: higher level of activity in both assays than the known prodrug, triptolide 14-succinate”; the “cytotoxic activity (MTT assay), compound incubated in human serum” value was “high, and essentially equivalent, activity”. In addition, the “cytotoxic activity (MTT assay), compound incubated in mouse serum” value in data set [1] (pre-incubation in mouse serum) was “high, and essentially equivalent, activity”. Besides, in data set [1] (without serum incubation, compared with serum-incubated compound), the “cytotoxic activity (MTT assay), compound unincubated” value was “nearly equivalent activity”. Also, the “inhibition of IL-2 production” value in data set [2] is on record as “higher level of activity in both assays than the known prodrug, triptolide 14-succinate; also recorded: inhibited IL-2 production”. For the same compound, the “inhibition of IL-2 production, compound incubated in human serum” value in data set [2] (Jurkat cells) is “high, and essentially equivalent, activity”. The “inhibition of IL-2 production, compound incubated in mouse serum” value in data set [2] (Jurkat cells, pre-incubation in mouse serum) was “high, and essentially equivalent, activity”. Further, the “inhibition of IL-2 production, compound unincubated” value in data set [2] (Jurkat cells, without serum incubation, compared with serum-incubated compound) was “nearly equivalent activity”.
With `CC1OC(=O)C2=C1[C@@H]1C[C@@H]3O[C@@]34[C@H](O)[C@@]3(C(C)C)O[C@H]3[C@@H]3O[C@@]34[C@@]1(C)CC2` (stereo partly drawn) [PG795, 19-methyl triptolide], in data set [1], the “cytotoxic activity (MTT assay, OD570)” value is recorded as “cytotoxic to Jurkat cells; also recorded: significant activity; also recorded: less active than triptolide”. Moreover, in data set [2], the “inhibition of IL-2 production” value was “significant activity; also recorded: less active than triptolide; also recorded: inhibited IL-2 production”.
